Laboratory results taken from patent US20220162191A1, “SMALL MOLECULE MODULATORS OF IL-17” (LEO PHARMA A/S, priority 2019, published 2022).

Biological target: T1, human IL-17AA (Homo sapiens, UniProt Q16552)
T1 construct: host or cells: HEK (human embryonic kidney) cells
T1 sequence (Q16552 24-155) 1: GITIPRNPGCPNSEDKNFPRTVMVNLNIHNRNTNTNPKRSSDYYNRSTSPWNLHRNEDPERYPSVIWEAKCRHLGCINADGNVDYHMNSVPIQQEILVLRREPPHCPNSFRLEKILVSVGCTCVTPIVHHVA
T1 sequence (Q16552 24-155) 2: T1 sequence (Q16552 24-155) 1
Test: IL-8 release assay in human epithelial keratinocytes adult (HEKa)
Format: cell-based
Conditions: 3 ng/ml human IL-17AA + 10 ng/ml human TNFalpha, 68-72 h, IL-8 by HTRF, read-out: Rel EC50 L-8 release assay
Procedure, shortened: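 IL-8 secretion, quantified by HTRF (665/620 nm) as percent of controls, served as the readout after 68–72 h culture of HEKa cells with compound plus IL-17AA (3 ng/ml final) and TNF-alpha (10 ng/ml final). Four-parameter logistic curves gave relative IC50 and Emax.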

EC50 [nM] | SMILES
< 100 | Cc1nocc1C(=O)N[C@@H](Cc1cc(-c2ccnc(C(O)C3CC3)c2)ccc1Cl)C(=O)Nc1ccc(-c2cncn2C)cc1 (stereo partly drawn) [Example 123, N-[(1S)-1-[[2-chloro-5-[2-[cyclopropyl(hydroxy)methyl]-4-pyridyl]phenyl]methyl]-2-[4-(3-methylimidazol-4-yl)anilino]-2-oxo-ethyl]-3-methyl-isoxazole-4-carboxamide]
100 to 1000 | Cn1cncc1-c1ccc(NC(=O)[C@H](Cc2cc(-c3ccnc(C(O)C4CC4)c3)ccc2Cl)NC(=O)C2(F)CC2)cc1 (stereo partly drawn) [Example 124, N-[(1S)-1-[[2-chloro-5-[2-[cyclopropyl(hydroxy)methyl]-4-pyridyl]phenyl]methyl]-2-[4-(3-methylimidazol-4-yl)anilino]-2-oxo-ethyl]-1-fluoro-cyclopropanecarboxamide]
100 to 1000 | Cc1nccn1-c1ccc(NC(=O)[C@H](Cc2cc(-c3ccnc(C(O)C4CC4)c3)ccc2Cl)NC(=O)C2(F)CC2)cc1 (stereo partly drawn) [Example 126, N-[(1S)-1-[[2-chloro-5-[2-[cyclopropyl(hydroxy)methyl]-4-pyridyl]phenyl]methyl]-2-[4-(2-methylimidazol-1-yl)anilino]-2-oxo-ethyl]-1-fluoro-cyclopropanecarboxamide]
> 1000 | CC(C)n1cc(-c2ccc(Cl)c(C[C@H](NC(=O)CC3CCC3)C(=O)Nc3ccc(-c4nncn4C)cc3)c2)ccc1=O [Example 127, (2S)-3-[2-chloro-5-(1-isopropyl-6-oxo-3-pyridyl)phenyl]-2-[(2-cyclobutylacetyl)amino]-N-[4-(4-methyl-1,2,4-triazol-3-yl)phenyl]propanamide]
100 to 1000 | Cc1nocc1C(=O)N[C@@H](Cc1cc(-c2ccnc(C(C)(C)C)c2)ccc1Cl)C(=O)Nc1ccc(-c2nncn2C)cc1 [Example 128, N-[(1S)-1-[[5-(2-tert-butyl-4-pyridyl)-2-chloro-phenyl]methyl]-2-[4-(4-methyl-1,2,4-triazol-3-yl)anilino]-2-oxo-ethyl]-3-methyl-isoxazole-4-carboxamide]
100 to 1000 | Cc1[nH]ncc1-c1ccc(NC(=O)C(Cc2cc(-c3ccc(=O)n(C(C)C)c3)ccc2Cl)NC(=O)C2(F)CC2)cc1 (stereo not drawn) [Example 129, N-[1-[[2-chloro-5-(1-isopropyl-6-oxo-3-pyridyl)phenyl]methyl]-2-[4-(5-methyl-1H-pyrazol-4-yl)anilino]-2-oxo-ethyl]-1-fluoro-cyclopropanecarboxamide]
100 to 1000 | CC(C)n1cc(-c2ccc(Cl)c(C[C@H](NC(=O)C3(F)CC3)C(=O)Nc3ccc(-c4cncn4C)c(O)c3)c2)ccc1=O [Example 133, N-[(1S)-1-[[2-chloro-5-(1-isopropyl-6-oxo-3-pyridyl)phenyl]methyl]-2-[3-hydroxy-4-(3-methylimidazol-4-yl)anilino]-2-oxo-ethyl]-1-fluoro-cyclopropanecarboxamide]
100 to 1000 | Cc1n[nH]cc1-c1ccc(NC(=O)[C@H](Cc2cc(-c3ccc(=O)n(C(C)C)c3)ccc2Cl)NC(=O)C2(F)CC2)cc1 [Example 136, N-[(1S)-1-[[2-chloro-5-(1-isopropyl-6-oxo-3-pyridyl)phenyl]methyl]-2-[4-(3-methyl-1H-pyrazol-4-yl)anilino]-2-oxo-ethyl]-1-fluoro-cyclopropanecarboxamide]
< 100 | Cc1n[nH]c(C)c1-c1ccc(NC(=O)[C@H](Cc2cc(-c3ccc(=O)n(C(C)C)c3)ccc2Cl)NC(=O)C2(F)CC2)cc1 [Example 137, N-[(1S)-1-[[2-chloro-5-(1-isopropyl-6-oxo-3-pyridyl)phenyl]methyl]-2-[4-(3,5-dimethyl-1H-pyrazol-4-yl)anilino]-2-oxo-ethyl]-1-fluoro-cyclopropanecarboxamide]
100 to 1000 | Cn1cncc1-c1ccc(NC(=O)[C@H](Cc2cc(-c3ccnc(C(O)C4CC4)c3)ccc2Cl)NC(=O)c2ccnn2C)cc1 (stereo partly drawn) [Example 140, N-[(1S)-1-[[2-chloro-5-[2-[cyclopropyl(hydroxy)methyl]-4-pyridyl]phenyl]methyl]-2-[4-(3-methylimidazol-4-yl)anilino]-2-oxo-ethyl]-2-methyl-pyrazole-3-carboxamide]
< 100 | Cn1cncc1-c1ccc(NC(=O)[C@H](Cc2cc(-c3ccnc(C(C)(O)C4CC4)c3)ccc2Cl)NC(=O)c2ccnn2C)cc1 (stereo partly drawn) [Example 141, N-[(1S)-1-[[2-chloro-5-[2-(1-cyclopropyl-1-hydroxy-ethyl)-4-pyridyl]phenyl]methyl]-2-[4-(3-methylimidazol-4-yl)anilino]-2-oxo-ethyl]-2-methyl-pyrazole-3-carboxamide]
< 100 | Cn1cncc1-c1ccc(NC(=O)[C@H](Cc2cc(-c3ccnc(C(C)(O)C4CC4)c3)ccc2Cl)NC(=O)C2(F)CC2)cc1 (stereo partly drawn) [Example 142, N-[(1S)-1-[[2-chloro-5-[2-(1-cyclopropyl-1-hydroxy-ethyl)-4-pyridyl]phenyl]methyl]-2-[4-(3-methylimidazol-4-yl)anilino]-2-oxo-ethyl]-1-fluoro-cyclopropanecarboxamide]

More lines, now with the values behind:

SMILES | EC50 [nM]
Cc1nocc1C(=O)NC(Cc1cc(-c2cccc(C(=O)N3CC(F)C3)c2)ccc1Cl)C(=O)Nc1ccc(-c2nncn2C)cc1 (stereo not drawn) [Example 120, N-[1-[[2-chloro-5-[3-(3-fluoroazetidine-1-carbonyl)phenyl]phenyl]methyl]-2-[4-(4-methyl-1,2,4-triazol-3-yl)anilino]-2-oxo-ethyl]-3-methyl-isoxazole-4-carboxamide] | 100 to 1000
CC(C)n1cc(-c2ccc(Cl)c(CC(NC(=O)c3ccnn3C)C(=O)Nc3ccc(-c4c[nH]nc4C(F)(F)F)cc3)c2)ccc1=O (stereo not drawn) [Example 121, N-[1-[[2-chloro-5-(1-isopropyl-6-oxo-3-pyridyl)phenyl]methyl]-2-oxo-2-[4-[3-(trifluoromethyl)-1H-pyrazol-4-yl]anilino]ethyl]-2-methyl-pyrazole-3-carboxamide] | 100 to 1000
CC(C)Oc1cccc(-c2ccc(Cl)c(CC(NC(=O)c3ccnn3C)C(=O)Nc3ccc(-c4nncn4C)cc3)c2)c1 (stereo not drawn) [Example 122, N-[1-[[2-chloro-5-(3-isopropoxyphenyl)phenyl]methyl]-2-[4-(4-methyl-1,2,4-triazol-3-yl)anilino]-2-oxo-ethyl]-2-methyl-pyrazole-3-carboxamide] | 100 to 1000
Cc1nocc1C(=O)N[C@@H](Cc1cc(-c2ccnc(C(O)C3CC3)c2)ccc1Cl)C(=O)Nc1ccc(-n2ccnc2C)cc1 (stereo partly drawn) [Example 125, N-[(1S)-1-[[2-chloro-5-[2-[cyclopropyl(hydroxy)methyl]-4-pyridyl]phenyl]methyl]-2-[4-(2-methylimidazol-1-yl)anilino]-2-oxo-ethyl]-3-methyl-isoxazole-4-carboxamide] | 100 to 1000
Cn1cnnc1-c1ccc(NC(=O)C(Cc2cc(-c3ccc(O)c(CN4CCOCC4)c3)ccc2Cl)NC(=O)c2ccnn2C)cc1 (stereo not drawn) [Example 130, N-[1-[[2-chloro-5-[4-hydroxy-3-(morpholinomethyl)phenyl]phenyl]methyl]-2-[4-(4-methyl-1,2,4-triazol-3-yl)anilino]-2-oxo-ethyl]-2-methyl-pyrazole-3-carboxamide] | 100 to 1000
CC(C)n1cc(-c2ccc(Cl)c(C[C@H](NC(=O)OC3CC3)C(=O)Nc3ccc(-c4nncn4C)cc3)c2)ccc1=O [Example 131, cyclopropyl N-[(1S)-1-[[2-chloro-5-(1-isopropyl-6-oxo-3-pyridyl)phenyl]methyl]-2-[4-(4-methyl-1,2,4-triazol-3-yl)anilino]-2-oxo-ethyl]carbamate] | 100 to 1000
Cc1nocc1C(=O)N[C@@H](Cc1cc(-c2ccc(=O)n(C(C)C)c2)ccc1Cl)C(=O)Nc1ccc(-c2cncn2C)c(O)c1 [Example 132, N-[(1S)-1-[[2-chloro-5-(1-isopropyl-6-oxo-3-pyridyl)phenyl]methyl]-2-[3-hydroxy-4-(3-methylimidazol-4-yl)anilino]-2-oxo-ethyl]-3-methyl-isoxazole-4-carboxamide] | < 100
CC(C)n1cc(-c2ccc(Cl)c(C[C@H](NC(=O)OC(C)(C)C)C(=O)Nc3ccc(-c4cncn4C)c(F)c3)c2)ccc1=O [Example 134, tert-butyl N-[(1S)-1-[[2-chloro-5-(1-isopropyl-6-oxo-3-pyridyl)phenyl]methyl]-2-[3-fluoro-4-(3-methylimidazol-4-yl)anilino]-2-oxo-ethyl]carbamate] | 100 to 1000
CC(C)n1cc(-c2ccc(Cl)c(C[C@H](NC(=O)c3ccnn3C)C(=O)Nc3ccc(-c4cncn4C)c(F)c3)c2)ccc1=O [Example 135, N-[(1S)-1-[[2-chloro-5-(1-isopropyl-6-oxo-3-pyridyl)phenyl]methyl]-2-[3-fluoro-4-(3-methylimidazol-4-yl)anilino]-2-oxo-ethyl]-2-methyl-pyrazole-3-carboxamide] | 100 to 1000
CC(C)n1cc(-c2ccc(Cl)c(C[C@H](NC(=O)c3ccnn3C)C(=O)Nc3ccc(-c4cn[nH]c4)c(F)c3)c2)ccc1=O [Example 138, N-[(1S)-1-[[2-chloro-5-(1-isopropyl-6-oxo-3-pyridyl)phenyl]methyl]-2-[3-fluoro-4-(1H-pyrazol-4-yl)anilino]-2-oxo-ethyl]-2-methyl-pyrazole-3-carboxamide] | 100 to 1000
CN(C)Cc1cc(-c2ccc(Cl)c(CC(NC(=O)c3ccnn3C)C(=O)Nc3ccc(-c4nncn4C)cc3)c2)ccc1O (stereo not drawn) [Example 139, N-[1-[[2-chloro-5-[3-(dimethylaminomethyl)-4-hydroxy-phenyl]phenyl]methyl]-2-[4-(4-methyl-1,2,4-triazol-3-yl)anilino]-2-oxo-ethyl]-2-methyl-pyrazole-3-carboxamide] | > 1000
Cc1ncn(C)c1-c1ccc(NC(=O)[C@H](Cc2cc(-c3ccc(=O)n(C(C)C)c3)ccc2Cl)NC(=O)c2ccnn2C)cc1 [Example 143, N-[(1S)-1-[[2-chloro-5-(1-isopropyl-6-oxo-3-pyridyl)phenyl]methyl]-2-[4-(3,5-dimethylimidazol-4-yl)anilino]-2-oxo-ethyl]-2-methyl-pyrazole-3-carboxamide] | 100 to 1000
